Measurements taken from the NIST ThermoML archive (doi:10.1021/je8003595).
± gives the expanded uncertainty stated by the source.

Assay: mn = molality of the nth substance listed, in mol/kg
Settings: 101 kPa, Liquid; for viscosity: Capillary tube (Ostwald / Ubbelohde) method

Structure (SMILES): O=C(Oc1ccccc1)c1ccccc1O [phenyl salicylate] + CC#N
- viscosity (293.15 K, m1 = 0.0096): 0.3086 ± 0.0065 mPa·s
- viscosity (293.15 K, m1 = 0.0128): 0.3087 ± 0.0065 mPa·s
- viscosity (293.15 K, m1 = 0.016): 0.3088 ± 0.0065 mPa·s
- viscosity (293.15 K, m1 = 0.0192): 0.3091 ± 0.0065 mPa·s
- viscosity (293.15 K, m1 = 0.0224): 0.3092 ± 0.0065 mPa·s
- viscosity (293.15 K, m1 = 0.0257): 0.3094 ± 0.0065 mPa·s
- viscosity (293.15 K, m1 = 0.0321): 0.3097 ± 0.0065 mPa·s
- mass density (293.15 K, m1 = 0.0096): 783.179 ± 0.5 kg/m3
- mass density (293.15 K, m1 = 0.0128): 783.379 ± 0.5 kg/m3
- mass density (293.15 K, m1 = 0.016): 783.559 ± 0.5 kg/m3
- mass density (293.15 K, m1 = 0.0192): 783.709 ± 0.5 kg/m3
- mass density (293.15 K, m1 = 0.0224): 783.871 ± 0.5 kg/m3
- mass density (293.15 K, m1 = 0.0257): 784.031 ± 0.5 kg/m3
- mass density (293.15 K, m1 = 0.0321): 784.222 ± 0.49 kg/m3
- viscosity (298.15 K, m1 = 0.0097): 0.2867 ± 0.0065 mPa·s
- viscosity (298.15 K, m1 = 0.0129): 0.2869 ± 0.0065 mPa·s
- viscosity (298.15 K, m1 = 0.0161): 0.2871 ± 0.0065 mPa·s
- viscosity (298.15 K, m1 = 0.0194): 0.2873 ± 0.0065 mPa·s
- viscosity (298.15 K, m1 = 0.0226): 0.2875 ± 0.0065 mPa·s
- viscosity (298.15 K, m1 = 0.0258): 0.2876 ± 0.0065 mPa·s
- viscosity (298.15 K, m1 = 0.0323): 0.288 ± 0.0065 mPa·s
- mass density (298.15 K, m1 = 0.0097): 777.771 ± 0.51 kg/m3
- mass density (298.15 K, m1 = 0.0129): 777.981 ± 0.51 kg/m3
- mass density (298.15 K, m1 = 0.0161): 778.151 ± 0.51 kg/m3
- mass density (298.15 K, m1 = 0.0194): 778.309 ± 0.51 kg/m3
- mass density (298.15 K, m1 = 0.0226): 778.451 ± 0.51 kg/m3
- mass density (298.15 K, m1 = 0.0258): 778.609 ± 0.5 kg/m3
- mass density (298.15 K, m1 = 0.0323): 778.835 ± 0.5 kg/m3
- viscosity (303.15 K, m1 = 0.0097): 0.2649 ± 0.0064 mPa·s
- viscosity (303.15 K, m1 = 0.013): 0.265 ± 0.0064 mPa·s
- viscosity (303.15 K, m1 = 0.0162): 0.2652 ± 0.0064 mPa·s
- viscosity (303.15 K, m1 = 0.0195): 0.2653 ± 0.0064 mPa·s
- viscosity (303.15 K, m1 = 0.0227): 0.2655 ± 0.0064 mPa·s
- viscosity (303.15 K, m1 = 0.026): 0.2656 ± 0.0064 mPa·s
- viscosity (303.15 K, m1 = 0.0326): 0.2659 ± 0.0064 mPa·s
- mass density (303.15 K, m1 = 0.0097): 772.334 ± 0.52 kg/m3
- mass density (303.15 K, m1 = 0.013): 772.545 ± 0.52 kg/m3
- mass density (303.15 K, m1 = 0.0162): 772.724 ± 0.51 kg/m3
- mass density (303.15 K, m1 = 0.0195): 772.856 ± 0.51 kg/m3
- mass density (303.15 K, m1 = 0.0227): 773.025 ± 0.51 kg/m3
- mass density (303.15 K, m1 = 0.026): 773.165 ± 0.51 kg/m3
- mass density (303.15 K, m1 = 0.0326): 773.351 ± 0.51 kg/m3
